# Data as given in the CheMixHub viscosity set.
# ± gives the uncertainty stated by the source.
# Experiment: xn = mol fraction of the nth substance listed
structure (smiles),measurement,setting,value
BrC(Br)Br + CCCC#N,viscosity,"298.15 K, 101 kPa, x1 = 0.09373",0.6216 ± 0.041 mPa·s
same,viscosity,"298.15 K, 101 kPa, x1 = 0.2439",0.8407 ± 0.041 mPa·s
same,viscosity,"298.15 K, 101 kPa, x1 = 0.3911",1.021 ± 0.042 mPa·s
same,viscosity,"298.15 K, 101 kPa, x1 = 0.4986",1.169 ± 0.042 mPa·s
same,viscosity,"298.15 K, 101 kPa, x1 = 0.7",1.46 ± 0.043 mPa·s
same,viscosity,"298.15 K, 101 kPa, x1 = 0.9",1.724 ± 0.045 mPa·s
CC12CC3CC(C1)CC(C)(C3)C2 + CCCCC1CCCCC1,viscosity,"293.15 K, 100 kPa, x1 = 0.083",1.407 ± 0.011 mPa·s
same,viscosity,"293.15 K, 100 kPa, x1 = 0.1716",1.518 ± 0.012 mPa·s
same,viscosity,"293.15 K, 100 kPa, x1 = 0.2652",1.654 ± 0.012 mPa·s
same,viscosity,"293.15 K, 100 kPa, x1 = 0.3625",1.802 ± 0.012 mPa·s
same,viscosity,"293.15 K, 100 kPa, x1 = 0.4617",1.989 ± 0.013 mPa·s
same,viscosity,"293.15 K, 100 kPa, x1 = 0.5636",2.215 ± 0.013 mPa·s
same,viscosity,"293.15 K, 100 kPa, x1 = 0.662",2.472 ± 0.014 mPa·s
same,viscosity,"293.15 K, 100 kPa, x1 = 0.7728",2.797 ± 0.014 mPa·s
same,viscosity,"293.15 K, 100 kPa, x1 = 0.8838",3.222 ± 0.015 mPa·s
same,viscosity,"298.15 K, 100 kPa, x1 = 0.083",1.293 ± 0.011 mPa·s
same,viscosity,"298.15 K, 100 kPa, x1 = 0.1716",1.391 ± 0.011 mPa·s
same,viscosity,"298.15 K, 100 kPa, x1 = 0.2652",1.512 ± 0.012 mPa·s
same,viscosity,"298.15 K, 100 kPa, x1 = 0.3625",1.643 ± 0.012 mPa·s
same,viscosity,"298.15 K, 100 kPa, x1 = 0.4617",1.805 ± 0.012 mPa·s
same,viscosity,"298.15 K, 100 kPa, x1 = 0.5636",2.007 ± 0.013 mPa·s
same,viscosity,"298.15 K, 100 kPa, x1 = 0.662",2.229 ± 0.013 mPa·s
same,viscosity,"298.15 K, 100 kPa, x1 = 0.7728",2.518 ± 0.014 mPa·s
same,viscosity,"298.15 K, 100 kPa, x1 = 0.8838",2.885 ± 0.015 mPa·s
same,viscosity,"303.15 K, 100 kPa, x1 = 0.083",1.194 ± 0.011 mPa·s
same,viscosity,"303.15 K, 100 kPa, x1 = 0.1716",1.281 ± 0.011 mPa·s
same,viscosity,"303.15 K, 100 kPa, x1 = 0.2652",1.389 ± 0.011 mPa·s
same,viscosity,"303.15 K, 100 kPa, x1 = 0.3625",1.506 ± 0.011 mPa·s
same,viscosity,"303.15 K, 100 kPa, x1 = 0.4617",1.647 ± 0.012 mPa·s
same,viscosity,"303.15 K, 100 kPa, x1 = 0.5636",1.828 ± 0.012 mPa·s
same,viscosity,"303.15 K, 100 kPa, x1 = 0.662",2.024 ± 0.013 mPa·s
same,viscosity,"303.15 K, 100 kPa, x1 = 0.7728",2.272 ± 0.013 mPa·s
same,viscosity,"303.15 K, 100 kPa, x1 = 0.8838",2.601 ± 0.014 mPa·s
same,viscosity,"313.15 K, 100 kPa, x1 = 0.083",1.03 ± 0.01 mPa·s
same,viscosity,"313.15 K, 100 kPa, x1 = 0.1716",1.099 ± 0.011 mPa·s
same,viscosity,"313.15 K, 100 kPa, x1 = 0.2652",1.187 ± 0.011 mPa·s
same,viscosity,"313.15 K, 100 kPa, x1 = 0.3625",1.28 ± 0.011 mPa·s
same,viscosity,"313.15 K, 100 kPa, x1 = 0.4617",1.393 ± 0.011 mPa·s
same,viscosity,"313.15 K, 100 kPa, x1 = 0.5636",1.537 ± 0.011 mPa·s
same,viscosity,"313.15 K, 100 kPa, x1 = 0.662",1.692 ± 0.012 mPa·s
same,viscosity,"313.15 K, 100 kPa, x1 = 0.7728",1.883 ± 0.012 mPa·s
same,viscosity,"313.15 K, 100 kPa, x1 = 0.8838",2.145 ± 0.013 mPa·s
same,viscosity,"323.15 K, 100 kPa, x1 = 0.083",0.893 ± 0.01 mPa·s
same,viscosity,"323.15 K, 100 kPa, x1 = 0.1716",0.951 ± 0.01 mPa·s
same,viscosity,"323.15 K, 100 kPa, x1 = 0.2652",1.008 ± 0.01 mPa·s
same,viscosity,"323.15 K, 100 kPa, x1 = 0.3625",1.088 ± 0.011 mPa·s
same,viscosity,"323.15 K, 100 kPa, x1 = 0.4617",1.182 ± 0.011 mPa·s
same,viscosity,"323.15 K, 100 kPa, x1 = 0.5636",1.289 ± 0.011 mPa·s
same,viscosity,"323.15 K, 100 kPa, x1 = 0.662",1.414 ± 0.011 mPa·s
same,viscosity,"323.15 K, 100 kPa, x1 = 0.7728",1.583 ± 0.012 mPa·s
same,viscosity,"323.15 K, 100 kPa, x1 = 0.8838",1.774 ± 0.012 mPa·s
BrC(Br)Br + CCCCCC,viscosity,"298.15 K, 101 kPa, x1 = 0.1058",0.3543 ± 0.04 mPa·s
same,viscosity,"298.15 K, 101 kPa, x1 = 0.2044",0.402 ± 0.04 mPa·s
same,viscosity,"298.15 K, 101 kPa, x1 = 0.2976",0.4904 ± 0.04 mPa·s
same,viscosity,"298.15 K, 101 kPa, x1 = 0.3989",0.5721 ± 0.041 mPa·s
same,viscosity,"298.15 K, 101 kPa, x1 = 0.5",0.6698 ± 0.041 mPa·s
same,viscosity,"298.15 K, 101 kPa, x1 = 0.6001",0.8212 ± 0.041 mPa·s
same,viscosity,"298.15 K, 101 kPa, x1 = 0.6743",0.9353 ± 0.041 mPa·s
same,viscosity,"298.15 K, 101 kPa, x1 = 0.8",1.217 ± 0.042 mPa·s
same,viscosity,"298.15 K, 101 kPa, x1 = 0.8948",1.475 ± 0.043 mPa·s
C=Cc1ccccc1 + CCCCCC,viscosity,"298.15 K, 101.33 kPa, x1 = 0.1019",0.314 ± 0.01 mPa·s
same,viscosity,"298.15 K, 101.33 kPa, x1 = 0.1987",0.334 ± 0.01 mPa·s
same,viscosity,"298.15 K, 101.33 kPa, x1 = 0.3024",0.362 ± 0.01 mPa·s
same,viscosity,"298.15 K, 101.33 kPa, x1 = 0.4003",0.385 ± 0.01 mPa·s
same,viscosity,"298.15 K, 101.33 kPa, x1 = 0.4992",0.417 ± 0.01 mPa·s
same,viscosity,"298.15 K, 101.33 kPa, x1 = 0.6023",0.457 ± 0.011 mPa·s
same,viscosity,"298.15 K, 101.33 kPa, x1 = 0.7055",0.507 ± 0.011 mPa·s
same,viscosity,"298.15 K, 101.33 kPa, x1 = 0.8021",0.566 ± 0.011 mPa·s
same,viscosity,"298.15 K, 101.33 kPa, x1 = 0.8935",0.632 ± 0.011 mPa·s
same,viscosity,"303.15 K, 101.33 kPa, x1 = 0.1019",0.302 ± 0.01 mPa·s
same,viscosity,"303.15 K, 101.33 kPa, x1 = 0.1987",0.319 ± 0.01 mPa·s
same,viscosity,"303.15 K, 101.33 kPa, x1 = 0.3024",0.346 ± 0.01 mPa·s
same,viscosity,"303.15 K, 101.33 kPa, x1 = 0.4003",0.367 ± 0.01 mPa·s
same,viscosity,"303.15 K, 101.33 kPa, x1 = 0.4992",0.397 ± 0.01 mPa·s
same,viscosity,"303.15 K, 101.33 kPa, x1 = 0.6023",0.436 ± 0.011 mPa·s
same,viscosity,"303.15 K, 101.33 kPa, x1 = 0.7055",0.482 ± 0.011 mPa·s
same,viscosity,"303.15 K, 101.33 kPa, x1 = 0.8021",0.534 ± 0.011 mPa·s
same,viscosity,"303.15 K, 101.33 kPa, x1 = 0.8935",0.597 ± 0.011 mPa·s
same,viscosity,"308.15 K, 101.33 kPa, x1 = 0.1019",0.29 ± 0.01 mPa·s
same,viscosity,"308.15 K, 101.33 kPa, x1 = 0.1987",0.305 ± 0.01 mPa·s
same,viscosity,"308.15 K, 101.33 kPa, x1 = 0.3024",0.328 ± 0.01 mPa·s
same,viscosity,"308.15 K, 101.33 kPa, x1 = 0.4003",0.351 ± 0.01 mPa·s
same,viscosity,"308.15 K, 101.33 kPa, x1 = 0.4992",0.379 ± 0.01 mPa·s
same,viscosity,"308.15 K, 101.33 kPa, x1 = 0.6023",0.412 ± 0.01 mPa·s
same,viscosity,"308.15 K, 101.33 kPa, x1 = 0.7055",0.455 ± 0.011 mPa·s
same,viscosity,"308.15 K, 101.33 kPa, x1 = 0.8021",0.505 ± 0.011 mPa·s
same,viscosity,"308.15 K, 101.33 kPa, x1 = 0.8935",0.56 ± 0.011 mPa·s
CCC(C)(C)OC + CCCCCC,viscosity,"293.15 K, 100 kPa, x1 = 0.0498",0.317 ± 0.03 mPa·s
same,viscosity,"293.15 K, 100 kPa, x1 = 0.1632",0.325 ± 0.03 mPa·s
same,viscosity,"293.15 K, 100 kPa, x1 = 0.2584",0.332 ± 0.03 mPa·s
same,viscosity,"293.15 K, 100 kPa, x1 = 0.3742",0.343 ± 0.03 mPa·s
same,viscosity,"293.15 K, 100 kPa, x1 = 0.4276",0.349 ± 0.03 mPa·s
same,viscosity,"293.15 K, 100 kPa, x1 = 0.5464",0.363 ± 0.03 mPa·s
same,viscosity,"293.15 K, 100 kPa, x1 = 0.6121",0.372 ± 0.03 mPa·s
same,viscosity,"293.15 K, 100 kPa, x1 = 0.7457",0.391 ± 0.03 mPa·s
same,viscosity,"293.15 K, 100 kPa, x1 = 0.8625",0.412 ± 0.03 mPa·s
same,viscosity,"293.15 K, 100 kPa, x1 = 0.9488",0.429 ± 0.03 mPa·s
same,viscosity,"303.15 K, 100 kPa, x1 = 0.0498",0.287 ± 0.03 mPa·s
same,viscosity,"303.15 K, 100 kPa, x1 = 0.1632",0.293 ± 0.03 mPa·s
same,viscosity,"303.15 K, 100 kPa, x1 = 0.2584",0.3 ± 0.03 mPa·s
same,viscosity,"303.15 K, 100 kPa, x1 = 0.3742",0.31 ± 0.03 mPa·s
same,viscosity,"303.15 K, 100 kPa, x1 = 0.4276",0.315 ± 0.03 mPa·s
same,viscosity,"303.15 K, 100 kPa, x1 = 0.5464",0.33 ± 0.03 mPa·s
same,viscosity,"303.15 K, 100 kPa, x1 = 0.6121",0.339 ± 0.03 mPa·s
same,viscosity,"303.15 K, 100 kPa, x1 = 0.7457",0.362 ± 0.03 mPa·s
same,viscosity,"303.15 K, 100 kPa, x1 = 0.8625",0.384 ± 0.03 mPa·s
same,viscosity,"303.15 K, 100 kPa, x1 = 0.9488",0.407 ± 0.03 mPa·s
same,viscosity,"313.15 K, 100 kPa, x1 = 0.0498",0.254 ± 0.03 mPa·s
same,viscosity,"313.15 K, 100 kPa, x1 = 0.1632",0.259 ± 0.03 mPa·s
same,viscosity,"313.15 K, 100 kPa, x1 = 0.2584",0.266 ± 0.03 mPa·s
same,viscosity,"313.15 K, 100 kPa, x1 = 0.3742",0.277 ± 0.03 mPa·s
same,viscosity,"313.15 K, 100 kPa, x1 = 0.4276",0.282 ± 0.03 mPa·s
same,viscosity,"313.15 K, 100 kPa, x1 = 0.5464",0.296 ± 0.03 mPa·s
same,viscosity,"313.15 K, 100 kPa, x1 = 0.6121",0.304 ± 0.03 mPa·s
same,viscosity,"313.15 K, 100 kPa, x1 = 0.7457",0.323 ± 0.03 mPa·s
same,viscosity,"313.15 K, 100 kPa, x1 = 0.8625",0.343 ± 0.03 mPa·s
same,viscosity,"313.15 K, 100 kPa, x1 = 0.9488",0.358 ± 0.03 mPa·s
